Laboratory results published in US4413005A, “Carbamate derivatives and insecticidal, miticidal or nematocidal compositions containing the same” (priority 1981, dated 1983).
Entries after “also recorded” stand apart in the source; their conditions may differ.

Key:
[1] = test system: tobacco cutworm (Spodoptera litura); assay: Mortality of third-instar larvae of tobacco cutworm on cabbage (Test Example 1); format: in vivo; settings: 72 h
Experimental: Ten third-instar larvae of tobacco cutworm (Spodoptera litura) were placed on a cabbage (one-month-old seedling) planted in a pot, and a 50% emulsion of the compound to be tested was diluted to a specified concentration and applied to the leaves of the plant to fully wet them. The test compound of each specified concentration was tested on two pots.

[2] = Acute oral toxicity in male mice, LD50 by Litchfield-Wilcoxon method (Test Example 5); settings: mouse, in vivo, mortality on the seventh day
Experimental: Compounds of this invention were tested on male mice for acute toxicity by oral administration.

[3] = test system: house fly (Musca domestica); assay: Local application to house fly, LD50 by Probit method (Test Example 4); format: in vivo; settings: topical, 24 h
Experimental: The compound to be tested was dissolved in a predetermined amount of acetone. The solution was diluted to various concentrations and locally applied to house fly (Musca domestica).

[4] = test system: green rice leafhopper (Nephotettix cincticeps); assay: Mortality of female adults of green rice leafhopper on paddy rice (Test Example 2); format: in vivo; settings: 72 h
Experimental: An emulsion of specified concentration was prepared from a 50% wettable powder of the compound to be tested and applied to the leaves of paddy rice (one-month-old seedlings) planted in a pot to fully wet the leaves. After the emulsion had been dried, the pot was covered with a net cage, into which 10 female adults of green rice leafhopper (Nephotettix cincticeps) were released. The compound of each specified concentration was tested on two pots.

warm-blooded animals = settings: background statement, known; cited from earlier work
noxious insects = settings: background statement, known; cited from earlier work

Structure (SMILES) | mortality at 500 ppm [1] | mortality at 1000 ppm [1] | mortality at 2000 ppm [1] | LD50 at 168 h [2] | LD50 [3] | mortality at 200 ppm [4] | mortality at 400 ppm [4] | mortality at 800 ppm [4] | toxicity to warm-blooded animals (warm-blooded animals) | insecticidal activity (noxious insects)
CCCCCCN(CCC(=O)OCC)SN(C)C(=O)Oc1cccc2c1OC(C)(C)C2 [Example 31] | 60% | 80% | 100% | 135 mg/kg | 33.1 mg/kg | 55% | 75% | 100% |  | 
CCOC(=O)CN(SN(C)C(=O)Oc1cccc2c1OC(C)(C)C2)C(=O)c1ccccc1 [Example 46] | 70% | 85% | 100% | 105 mg/kg | 33.2 mg/kg | 65% | 85% | 100% |  | 
CCOC(=O)CN(C)SN(C)C(=O)Oc1cccc2c1OC(C)(C)C2 [Example 14, 2,3-Dihydro-2,2-dimethylbenzofuran-7-yl N-(N-methyl-N-ethoxycarbonylmethylaminosulfenyl)-N-methylcarbamate] | 75% | 90% | 100% | 120 mg/kg | 9.9 mg/kg | 65% | 90% | 100% |  | 
CNC(=O)Oc1cccc2c1OC(C)(C)C2 [carbofuran, 2,3-dihydro-2,2-dimethylbenzofuran-7-yl N-methyl-carbamate] |  |  |  | 5.6 mg/kg |  |  |  |  | high toxicity to warm-blooded animals | high insecticidal activity; also recorded: highest insecticidal activity heretofore known
CN(CCC#N)SN(C)C(=O)Oc1cccc2c1OC(C)(C)C2 [Example 37] | 70% | 85% | 100% | 65 mg/kg | 11.8 mg/kg | 65% | 85% | 100% |  | 
CCCCN(CC#N)SN(C)C(=O)Oc1cccc2c1OC(C)(C)C2 [Example 33, 2,3-dihydro-2,2-dimethylbenzofuran-7-yl N-(N-butyl-N-cyanomethylaminosulfenyl)-N-methyl-carbamate] | 75% | 90% | 100% | 103 mg/kg | 9.1 mg/kg | 70% | 90% | 100% |  | 
